# From US20210300936A1, “PYRAZOLOTRIAZOLOPYRIMIDINE DERIVATIVES AS A2A RECEPTOR ANTAGONIST” (BEIGENE, LTD., priority 2018, published 2021)
# pIC50, pKi: −log10 of the molar value. Like-named read-outs stand apart in the source and are kept apart here.
# Columns and labels:
# [1] = target: human A2A receptor (A2AR) (Homo sapiens, UniProt P29274); assay: Luciferase reporter assay (HEK293-A2AR-luc2p/CRE/Hygro cells, 3 nM CGS21680); type: cell-based; settings: 3 nM CGS21680, 5 h incubation
# In short: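 HEK293 cells stably expressing A2AR with a CRE-luc2P reporter were seeded in 1% FBS with 1 U/mL adenosine deaminase. After 18 h, cells got 3 nM CGS21680 plus antagonist at 0.1–10000 nM for 5 h, followed by a luciferase readout. IC50 is relative to the 3 nM CGS21680 signal, set as 100%.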
# [2] = target: T1, human adenosine receptor A1 (A1R) (Homo sapiens, UniProt P30542); assay: Adenosine receptor binding assay, radioligand competitive binding, [3H]DPCPX; settings: membrane homogenates from CHO cells transfected with A1R, 1 nM [3H]DPCPX
# T1 construct: host or cells: CHO cells (membrane homogenates)
# T1 sequence (P30542 1-326): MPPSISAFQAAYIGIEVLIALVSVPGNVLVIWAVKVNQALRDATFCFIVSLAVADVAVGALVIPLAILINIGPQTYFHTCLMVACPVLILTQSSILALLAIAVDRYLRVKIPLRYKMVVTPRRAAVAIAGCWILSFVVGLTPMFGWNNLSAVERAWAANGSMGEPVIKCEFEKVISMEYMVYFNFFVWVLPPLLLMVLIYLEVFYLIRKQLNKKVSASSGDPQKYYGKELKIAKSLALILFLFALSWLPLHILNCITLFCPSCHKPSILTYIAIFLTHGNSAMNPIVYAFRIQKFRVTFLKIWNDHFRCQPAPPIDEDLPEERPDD
# Procedure: (§1) Binding affinity of test compounds to four human adenosine receptors, A1, A2A, A2B and A3 was determined in radioligand competitive binding assay (conducted by Cerep, France) using following protocols. For A1 receptor (A1R), membrane homogenates from CHO cells transfected with A1R were incubated for 60 min at 22° C. with 1 nM [3H]DPCPX in the absence or presence of the test compound in a buffer containing 50 mM Tris-HCl (pH 7.4), 5 mM MgCl2, 1 mM EDTA/Tris and 2 UI/mL ADA. For A2AR, membrane homogenates from HEK293 cells transfected with A2AR were incubated for 120 min at 22° C. with 6 nM [3H]CGS21680 in the absence or presence of the test compound in a buffer containing 50 mM Tris-HCl (pH 7.4), 10 mM MgCl2, and 2 UI/mL ADA. For A2B receptor (A2BR), membrane homogenates from HEK293 cells transfected with A2BR were incubated for 60 min at 22° C. with 5 nM [3H]CPX in the absence or presence of the test compound in a buffer containing 10 mM Hepes/Tris (pH 7), 1 mM MgCl2, and 1 mM EDTA. For A3 receptor (A3R), membrane homogenates from HEK293 cells transfected with A3R were incubated for 120 min at 22° C. with 0.15 nM [125I]AB-MECA in the absence or presence of the test compound in a buffer containing 50 mM Tris-HCl (pH 7.4), 5 mM MgCl2, 1 mM EDTA and 2 UI/mL ADA. Nonspecific binding was determined in the presence of unlabeled 1 μM DPCPX, 10 μM NECA, 100 μM NECA, and 1 μM IB-MECA in A1R, A2AR, A2BR, A3R binding assays, respectively. Following incubation, the samples are rapidly filtered and washed with ice-cold 50 mM Tris-HCl. Then filters are dried and counted for radioactivity in a scintillation counter (Topcount, Packard) using a scintillation cocktail (Microscint 0, Packard). Duplicate experiments were performed for each assay. The results are expressed as a percent inhibition of control radioligand specific binding.
# [3] = target: T2, human adenosine receptor A2A (A2AR) (Homo sapiens, UniProt P29274); assay: Adenosine receptor binding assay, radioligand competitive binding, [3H]CGS21680; settings: membrane homogenates from HEK293 cells transfected with A2AR, 6 nM [3H]CGS21680
# T2 construct: host or cells: HEK293 cells (membrane homogenates)
# Procedure: as §1
# Mouse BBB assay = type: in vivo; settings: oral 10 mg/kg
# Procedure: Mice were acclimated for 1 week prior to use at 18-30 g body weight. Fasted mice were dosed orally at 10 mg/kg dose. At 1, 2 and 4 hours postdose, plasma samples from cardiac blood collected in tubes containing K2EDTA as the anticoagulant, and excised cerebral hemispheres were immediately frozen and stored at −80° C. until bioanalysis. Total concentrations of the compound were determined by LC-MS/MS. Brain homogenate concentrations were converted to brain concentrations for the calculations of brain-to-plasma ratios.
# Sequence of human A2A receptor (A2AR) (P29274 whole entry): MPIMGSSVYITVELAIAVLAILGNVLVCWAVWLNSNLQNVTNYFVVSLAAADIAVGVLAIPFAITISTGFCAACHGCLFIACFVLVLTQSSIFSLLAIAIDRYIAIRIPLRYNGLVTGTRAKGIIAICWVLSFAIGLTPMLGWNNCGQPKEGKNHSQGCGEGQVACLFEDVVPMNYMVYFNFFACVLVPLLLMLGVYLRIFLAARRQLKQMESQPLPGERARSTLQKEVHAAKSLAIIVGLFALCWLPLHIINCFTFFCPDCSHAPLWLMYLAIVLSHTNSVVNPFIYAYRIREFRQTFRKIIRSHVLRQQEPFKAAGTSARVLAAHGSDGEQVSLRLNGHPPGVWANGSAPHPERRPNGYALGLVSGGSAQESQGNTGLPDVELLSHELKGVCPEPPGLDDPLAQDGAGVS
# T2 sequence (P29274 whole entry): as above
SMILES,pIC50 [1],pKi [2],pKi [3],"concentration at 1 h (Mouse BBB assay; brain, read-out: Brain) [ng/g]","concentration at 1 h (Mouse BBB assay; plasma, read-out: Plasma) [µg/mL]"
"CCCC(C(=O)N1CCN(c2ccc(OCCOC)cc2)CC1)n1ncc2c1nc(N)n1nc(-c3ccco3)nc21 (single isomer, unassigned) [Compound A5a, 2-(5-amino-2-(furan-2-yl)-7H-pyrazolo[4,3-e][1,2,4]triazolo[1,5-c]pyrimidin-7-yl)-1-(4-(4-(2-methoxyethoxy)phenyl)piperazin-1-yl)pentan-1-one]",8.66,6.80,8.77,5.1,0.116
"CCCC(C(=O)N1CCN(c2ccc(OCCOCCOC)cc2)CC1)n1ncc2c1nc(N)n1nc(-c3ccco3)nc21 (single isomer, unassigned) [Compound A6a, 2-(5-amino-2-(furan-2-yl)-7H-pyrazolo[4,3-e][1,2,4]triazolo[1,5-c]pyrimidin-7-yl)-1-(4-(4-(2-(2-methoxyethoxy)ethoxy)phenyl)piperazin-1-yl)pentan-1-one]",8.30,7.09,8.85,4.2,0.173
"CCCCC(C(=O)N1CCN(c2ccc(OCCOC)cc2)CC1)n1ncc2c1nc(N)n1nc(-c3ccco3)nc21 (single isomer, unassigned) [Compound A10a, 2-(5-amino-2-(furan-2-yl)-7H-pyrazolo[4,3-e][1,2,4]triazolo[1,5-c]pyrimidin-7-yl)-1-(4-(4-(2-methoxyethoxy)phenyl)piperazin-1-yl)hexan-1-one]",8.57,6.92,8.64,20,0.471
"COCCOc1ccc(N2CCN(C(=O)C(c3ccccc3)n3ncc4c3nc(N)n3nc(-c5ccco5)nc43)CC2)cc1 (single isomer, unassigned) [Compound A13b]",9.10,7.38,9.04,54,2.44
"CCCC(C(=O)N1CCN(c2ccc(OCCOC)cc2F)CC1)n1ncc2c1nc(N)n1nc(-c3ccco3)nc21 (single isomer, unassigned) [Compound A24b]",7.10,5.92,8.07,–,–
"CCCC(C(=O)N1CCN(c2ccc(OCCN(C)C)cc2)CC1)n1ncc2c1nc(N)n1nc(-c3ccco3)nc21 (single isomer, unassigned) [Compound A39b]",8.44,7.10,8.70,–,–
"COCCOc1ccc(N2CCN(C(=O)C(c3ccccc3F)n3ncc4c3nc(N)n3nc(-c5ccco5)nc43)CC2)cc1 (single isomer, unassigned) [Compound A43b]",9.40,7.27,8.92,–,–
"Nc1nc2c(cnn2C(C(=O)N2CCc3ccccc3C2)c2ccccc2)c2nc(-c3ccco3)nn12 (single isomer, unassigned) [Compound B3b]",9.30,6.82,9.05,–,–
"COCCOc1ccc(N2CCN(C(=O)C(C)n3cc4c(nc(N)n5nc(-c6ccco6)nc45)n3)CC2)cc1 (single isomer, unassigned) [Compound C1a]",7.24,> 9.30,8.21,–,–
"COCCOc1ccc(N2CCN(C(=O)C(C)n3cc4c(nc(N)n5nc(-c6ccco6)nc45)n3)CC2)cc1 (single isomer, unassigned) [Compound C1b]",7.90,8.00,8.60,–,–
"COCCOc1ccc(N2CCN(C(=O)[C@](C)(c3ccccc3)n3ncc4c3nc(N)n3nc(-c5ccco5)nc43)CC2)cc1 [Compound A63a, (S)-2-(5-amino-2-(furan-2-yl)-7H-pyrazolo[4,3-e][1,2,4]triazolo[1,5-c]pyrimidin-7-yl)-1-(4-(4-(2-methoxyethoxy)phenyl)piperazin-1-yl)-2-phenylpropan-1-one]",8.10,5.95,8.51,–,–
"COCCOc1ccc(N2CCN(C(=O)[C@@](C)(c3ccccc3)n3ncc4c3nc(N)n3nc(-c5ccco5)nc43)CC2)cc1 [Compound A63b, (R)-2-(5-amino-2-(furan-2-yl)-7H-pyrazolo[4,3-e][1,2,4]triazolo[1,5-c]pyrimidin-7-yl)-1-(4-(4-(2-methoxyethoxy)phenyl)piperazin-1-yl)-2-phenylpropan-1-one]",8.48,6.82,8.82,–,–
"COCCOc1ccc(N2CCN(C(=O)Cn3ncc4c3nc(N)n3nc(-c5ccco5)nc43)CC2)cc1 [Compound D1, 2-(5-amino-2-(furan-2-yl)-7H-pyrazolo[4,3-e][1,2,4]triazolo[1,5-c]pyrimidin-7-yl)-1-(4-(4-(2-methoxyethoxy)phenyl)piperazin-1-yl)ethan-1-one]",7.57,7.28,8.74,–,–
"COCCOc1ccc(N2CCN(C(=O)Cn3cc4c(nc(N)n5nc(-c6ccco6)nc45)n3)CC2)cc1 [Compound D2, 2-(5-amino-2-(furan-2-yl)-8H-pyrazolo[4,3-e][1,2,4]triazolo[1,5-c]pyrimidin-8-yl)-1-(4-(4-(2-methoxyethoxy)phenyl)piperazin-1-yl)ethan-1-one]",7.18,9.09,8.55,–,–
